Data reported in PubChem BioAssay AID651806 (Broad Institute, 2012).
Active and inactive are the calls of the source.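 Rule for the calls: active = AC50 no higher than twice the top valid tested dose, with signal falling as dose rises; inconclusive = flat fit with partial inhibition, or a poor-quality fit; inactive = the rest, plus effects in the rising direction.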

Target: Kelch-like ECH-associated protein 1 (Homo sapiens) (UniProt Q14145)
Test: Keap1 Kelch-Nrf2 peptide binding inhibitors, dose response, biochemical, fluorescence polarization, dry powder, set 3 (AID 651806)
Conditions: Keap1 Kelch/FITC-Nrf2 peptide fluorescence polarization

Kelch-like ECH-associated protein 1 (Homo sapiens), sequence (Q14145 whole entry, looked up): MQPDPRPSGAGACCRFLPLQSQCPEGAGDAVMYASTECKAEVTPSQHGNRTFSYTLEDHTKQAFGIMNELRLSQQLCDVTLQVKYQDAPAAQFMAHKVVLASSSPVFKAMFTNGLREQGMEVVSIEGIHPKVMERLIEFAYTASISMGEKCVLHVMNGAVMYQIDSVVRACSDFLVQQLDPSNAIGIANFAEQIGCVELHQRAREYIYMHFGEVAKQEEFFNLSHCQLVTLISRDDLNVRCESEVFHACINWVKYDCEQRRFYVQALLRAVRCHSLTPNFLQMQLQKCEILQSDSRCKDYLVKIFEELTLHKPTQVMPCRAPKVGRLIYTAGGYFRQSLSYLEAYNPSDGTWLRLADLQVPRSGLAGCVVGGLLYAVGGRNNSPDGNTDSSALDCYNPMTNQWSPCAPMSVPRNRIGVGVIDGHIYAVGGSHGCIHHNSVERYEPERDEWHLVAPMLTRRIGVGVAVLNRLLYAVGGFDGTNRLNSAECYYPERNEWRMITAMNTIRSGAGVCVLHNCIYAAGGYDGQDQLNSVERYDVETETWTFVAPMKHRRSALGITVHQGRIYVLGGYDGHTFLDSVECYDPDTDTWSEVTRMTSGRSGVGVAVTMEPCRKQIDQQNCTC

SMILES | activity change, negative = inhibition (at 50 µM (top of the series)) | further results
COc1ccccc1CCNC(=O)[C@@H]1c2ccccc2CCN1C(=O)C1CCCCC1C(=O)O (stereo not given in full) | inactive | –
COC(=O)[C@@H]1CCCC[C@@H]1C(=O)N1CCc2ccccc2[C@H]1CN1C(=O)c2ccccc2C1=O | inactive | –
O=C(O)C1CCCCC1C(=O)N1CCc2ccccc2C1CN1C(=O)c2ccccc2S1(=O)=O (stereo not given) | – | AC50: > 100 µM (inactive)
O=C(O)[C@H]1CCCC[C@H]1C(=O)NC(CN1C(=O)c2ccccc2C1=O)c1ccccc1 (stereo not given in full) | inactive | –
Cc1ccc(S(=O)(=O)NNc2nc(C(C(=O)OC(C)C)C(=O)C(F)(F)F)nc3ccccc23)cc1 (stereo not given) | inactive | –
O=C(O)C1CCCCC1C(=O)N1CCc2ccccc2C1c1ccccc1 (stereo not given) | inactive | –
Cc1ccc(S(=O)(=O)Nc2cc(C(C(=O)OC(C)C)C(=O)C(F)(F)F)c(O)c3ccccc23)cc1 (stereo not given) | – | AC50: > 100 µM (inactive)
O=C(O)[C@H]1CCCC[C@H]1C(=O)N1CCc2ccccc2C1 (racemic) | inactive | –
Cc1cc(C)c(S(=O)(=O)Nc2nc(NCCO)nc3ccccc23)c(C)c1 | inactive | –
Cc1cc(C)c(S(=O)(=O)Nc2ncnc3ccccc23)c(C)c1 | inactive | –
CC(C)OC(=O)C(C(=O)C(F)(F)F)c1cc(NS(=O)(=O)c2ccccc2)c2ccccc2c1O (stereo not given) | – | AC50: > 100 µM (inactive)
O=C1c2ccccc2C(=O)N1CC1=NCCc2ccccc21 | inactive | –
COc1ccc(CCN=C2C=C(NS(=O)(=O)c3c(C)cc(C)cc3C)c3ccccc3C2=O)cc1 | inactive | –
O=C(O)CCC(=O)N1CCc2ccccc2C1CN1C(=O)c2ccccc2C1=O (stereo not given) | inactive | –
O=C(NC[C@@H]1c2ccccc2CCN1C(=O)[C@@H]1CCCC[C@@H]1C(=O)O)c1ccc(CN2CCOCC2)cc1 | inactive | –
O=C(NC[C@@H]1c2ccccc2CCN1C(=O)[C@@H]1CCCC[C@@H]1C(=O)O)c1ccccc1 | inactive | –
O=C(O)C1CCCCC1C(=O)N1CCc2ccccc2C1CN1C(=O)[C@H]2CCCC[C@H]2C1=O (stereo not given in full) | inactive | –
NC(=O)c1ccccc1C(=O)NC[C@@H]1c2ccccc2CCN1C(=O)[C@@H]1CCCC[C@@H]1C(=O)O | inactive | –
COC(=O)[C@H]1CCCC[C@H]1C(=O)N1CCc2ccccc2[C@H]1CN1C(=O)c2ccccc2C1=O | inactive | –
O=C(NCCc1ccccc1)c1ccccc1C(=O)NC[C@@H]1c2ccccc2CCN1C(=O)C1CCCCC1C(=O)O (stereo not given in full) | inactive | –
NC(=O)[C@H]1CCCC[C@H]1C(=O)N1CCc2ccccc2[C@H]1CN1C(=O)c2ccccc2C1=O | inactive | –
O=C(O)CCCC(=O)N1CCc2ccccc2C1CN1C(=O)c2ccccc2C1=O (stereo not given) | inactive | –
O=C(O)[C@@H]1CCCN1C(=O)N1CCc2ccccc2[C@H]1CN1C(=O)c2ccccc2C1=O | inactive | –
O=C(Oc1cc(CN2C(=O)c3ccccc3C2=O)c2ccccc2[n+]1[O-])c1cccc(Cl)c1 | inactive | –
Cc1cc(C)c(S(=O)(=O)Nc2nc(N(C)C)nc3ccccc23)c(C)c1 | inactive | –

SMILES | activity change, negative = inhibition (at 50 µM (top of the series)) | further results
Cc1cc(C)c(S(=O)(=O)Nc2cc(C(C(=O)OC(C)C)C(=O)C(F)(F)F)c(O)c3ccccc23)c(C)c1 (stereo not given) | – | AC50: 14.7 µM
COC(=O)[C@@H]1CCCC[C@@H]1C(=O)N1CCc2ccccc2[C@@H]1CN1C(=O)c2ccccc2C1=O | inactive | –
O=C(O)C1CCCCC1C(=O)N1CCc2ccccc2C1CN1C(=O)Cc2ccccc2C1=O (stereo not given) | – | AC50: > 100 µM (inactive)
Cc1ccc(S(=O)(=O)NNc2nc(NCC(N)=O)nc3ccccc23)cc1 | inactive | –
Cc1ccc(S(=O)(=O)NC2=CC(=N[C@@H](C)C(=O)OC(C)(C)C)C(=O)c3ccccc32)c(C)c1 | inactive | –
O=C(NCCCN1CCOCC1)c1ccccc1C(=O)NC[C@@H]1c2ccccc2CCN1C(=O)C1CCCCC1C(=O)O (stereo not given in full) | inactive | –
COC(=O)C(C(=O)OC)c1cc(NS(=O)(=O)c2c(C)cc(C)cc2C)c2ccccc2c1O | inactive | –
Cc1ccccc1S(=O)(=O)Nc1cc(C(C(=O)OC(C)C)C(=O)C(F)(F)F)c(O)c2ccccc12 (stereo not given) | – | AC50: > 100 µM (inactive)
O=C1c2ccccc2C(=O)N1C[C@@H]1c2ccccc2CCN1C(=O)C1CCCCC1 | inactive | –
O=C1c2ccccc2C(=O)N1C[C@@H]1c2ccccc2CCN1C(=O)OCc1ccccc1 | inactive | –
O=C1c2ccccc2C(=O)N1CC1c2ccccc2CCN1C(=O)Cc1ccccc1 (stereo not given) | – | activity change, negative = inhibition (at 12 µM (top of the series)): inactive
O=C(NCCO)c1ccccc1C(=O)NC[C@@H]1c2ccccc2CCN1C(=O)C1CCCCC1C(=O)O (stereo not given in full) | inactive | –
O=C(NC[C@@H]1c2ccccc2CCN1C(=O)[C@@H]1CCCC[C@@H]1C(=O)O)c1ccc(CCl)cc1 | inactive | –
CC(=O)Nc1cc(NS(=O)(=O)c2c(C)cc(C)cc2C)c2ccccc2c1O | – | AC50: > 100 µM (inactive)
O=C(O)[C@H]1C2C=CC(C2)[C@H]1C(=O)N1CCc2ccccc2C1CN1C(=O)c2ccccc2C1=O (stereo not given in full) | inactive | –
O=C(O)c1ccccc1C(=O)N1CCc2ccccc2C1CN1C(=O)c2ccccc2C1=O (stereo not given) | inactive | –
O=C(O)CC(=O)N1CCc2ccccc2C1CN1C(=O)c2ccccc2C1=O (stereo not given) | inactive | –
CCOC(=O)Cc1nc(NS(=O)(=O)c2c(C)cc(C)cc2C)c2ccccc2n1 | inactive | –
Cc1ccc(S(=O)(=O)NC[C@@H]2c3ccccc3CCN2C(=O)[C@@H]2CCCC[C@@H]2C(=O)O)c(C)c1 | inactive | –
O=C(O)[C@H]1CCCC[C@H]1C(=O)N1CCC2=C(CCCC2)C1CN1C(=O)c2ccccc2C1=O (stereo not given in full) | inactive | AC50: > 100 µM (inactive)
Cc1cc(C)c(S(=O)(=O)Nc2nc(C(C(=O)OC(C)C)C(=O)C(F)(F)F)nc3ccccc23)c(C)c1 (stereo not given) | inactive | –
O=C(O)/C=C\C(=O)N1CCc2ccccc2C1CN1C(=O)c2ccccc2C1=O (stereo not given) | inactive | –
O=C1c2ccccc2C(=O)N1C[C@H]1NCCc2ccccc21 | inactive | –
C=CC(=O)NC[C@@H]1c2ccccc2CCN1C(=O)[C@@H]1CCCC[C@@H]1C(=O)O | inactive | –
O=C(O)C1CCCCC1C(=O)N1CCc2ccccc2[C@H]1C(=O)NCCc1ccccc1 (stereo not given in full) | inactive | –

SMILES | activity change, negative = inhibition (at 50 µM (top of the series)) | further results
O=C(O)C1CCCCC1C(=O)N1CCCCC1CN1C(=O)c2ccccc2C1=O (stereo not given) | inactive | –
O=C(O)c1ccccc1C(=O)NC[C@@H]1c2ccccc2CCN1C(=O)[C@@H]1CCCC[C@@H]1C(=O)O | inactive | –
COC(=O)C1CCCCC1C(=O)N1CCc2ccccc2C1CN1C(=O)c2ccccc2C1=O (stereo not given) | inactive | –
O=C(O)[C@H]1CCCC[C@H]1C(=O)N1CCc2ccccc2[C@H]1CNc1nc(Cl)nc2ccccc12 | inactive | –
O=C(Cc1ccccc1)NC[C@@H]1c2ccccc2CCN1C(=O)[C@@H]1CCCC[C@@H]1C(=O)O | inactive | –
O=C(O)[C@H]1CCCC[C@H]1C(=O)N1CCc2ccccc2[C@H]1CNS(=O)(=O)c1ccccc1 | inactive | –
Cc1ccc(S(=O)(=O)NC(=O)[C@@H]2c3ccccc3CCN2C(=O)[C@@H]2CCCC[C@@H]2C(=O)O)cc1 | inactive | AC50: > 100 µM (inactive)
O=C(O)[C@H]1CCCC[C@H]1C(=O)N1CCc2ccccc2C1CCN1C(=O)c2ccccc2C1=O (stereo not given in full) | inactive | –
Cc1ccc(S(=O)(=O)NNc2nc(N3CC(O)CC3C(=O)O)nc3ccccc23)cc1 (stereo not given) | inactive | –
O=C(NC[C@@H]1c2ccccc2CCN1C(=O)[C@@H]1CCCC[C@@H]1C(=O)O)c1ccccc1CO | inactive | –
O=C(NC[C@@H]1c2ccccc2CCN1C(=O)[C@@H]1CCCC[C@@H]1C(=O)O)OCC1c2ccccc2-c2ccccc21 | inactive | –
CCOC(=O)C(C(=O)OCC)c1nc(NS(=O)(=O)c2c(C)cc(C)cc2C)c2ccccc2n1 | inactive | –
COC(=O)CNc1nc(NS(=O)(=O)c2c(C)cc(C)cc2C)c2ccccc2n1 | inactive | –
O=C(O)C1CCCCC1C(=O)Nc1ccccc1CN1C(=O)c2ccccc2C1=O (stereo not given) | inactive | –
Cc1cc(C)c(S(=O)(=O)Nc2cc(C(C(=O)OCc3ccccc3)C(=O)OCc3ccccc3)c(O)c3ccccc23)c(C)c1 | inactive | –
C[C@@H](NC(=O)C1CCCC[C@H]1C(=O)O)c1ccccc1 (mixture of isomers) | inactive | –
CC(C)CNc1nc(NS(=O)(=O)c2ccccc2)c2ccccc2n1 | inactive | –
CCOC(=O)C(C(=O)OCC)c1cc(CNS(=O)(=O)c2ccc(C)cc2C)c2ccccc2n1 | inactive | –
C[C@H](NC(=O)C1CCCC[C@H]1C(=O)O)c1ccccc1 (mixture of isomers) | inactive | –
O=C(O)C1CCCCC1C(=O)N1CCc2ccccc2[C@H]1C(=O)NC12CC3CC(CC(C3)C1)C2 (stereo not given in full) | inactive | –
O=S(=O)(Nc1nc(NCC2CCCCC2)nc2ccccc12)c1ccccc1 | inactive | –
O=C(O)C1CCCCC1C(=O)NCC1c2ccccc2CCN1C(=O)Cc1ccccc1 (stereo not given) | inactive | –
CCOC(=O)C(C(=O)OCC)c1cc(CN2C(=O)c3ccccc3C2=O)c2ccccc2n1 | inactive | –
